Source: patent US20230096766A1, “AMINO ACID HAVING FUNCTIONAL GROUP CAPABLE OF INTERMOLECULAR HYDROGEN BONDING, PEPTIDE COMPOUND CONTAINING SAME AND METHOD FOR PRODUCTION THEREOF” (Chugai Seiyaku Kabushiki Kaisha, priority 2018, published 2023)
Read-outs that look alike come from different tables or passages of the source. Blank lines part the entries; values can stand above or below the compound they belong to. Where a SMILES comes first, the peptide text is derived from it. Bridges are numbered along the chain shown (N, C = ends). [ ]: non-standard residue; d: D form. The star is where a group is joined. NMeHph(3-OMe-4-CONHMe) = CNC(=O)c1ccc(CC[C@H](NC)C(=O)O)cc1OC; NMeAbu(3,3-F2-piperidino) = CN[C@@H](CCN1CCCC(F)(F)C1)C(=O)O; NMePhe(3-Cl) = CN[C@@H](Cc1cccc(Cl)c1)C(=O)O; Ethyl(2-morpholino) = C1CN(CC*)CCO1; NMeF = CN[C@@H](Cc1ccccc1)C(=O)O; NMeD = CN[C@@H](CC(=O)O)C(=O)O; CH2CONHtBu = CC(C)(C)NC(=O)C*; NMeL = CN[C@@H](CC(C)C)C(=O)O; NMeV = CN[C@H](C(=O)O)C(C)C; NMeAbu = CC[C@H](NC)C(=O)O; NMeA = CN[C@@H](C)C(=O)O; Piperidide = C1CCN(*)CC1; NBuGly = CCCCNCC(=O)O; NPrGly = CCCNCC(=O)O; Bn = c1ccc(C*)cc1; Sar = CNCC(=O)O; tBu = CC(C)(C)*

Columns and labels:
[1] = Actual measurement of pKa of amino acid side chains by titration (Sirius T3) on three-residue peptides; format: physicochemical; details: for pKa / basic pKa: measured by titration (Sirius T3), 25° C., 0.15M; for pKa: amino acid X in three-residue peptide ZMeGly-X-MeGly-pip (Table 24, second part); for basic pKa: amino acid X in three-residue peptide ZMeGly-X-MeGly-pip (Table 24)
Experimental: pKas and basic pKas can be determined by a conventional method. For example, they can be measured by a method such as that described in Experimental Chemistry Lecture 5, “Thermal Measurements and Equilibrium”, p. 460 (edited by The Chemical Society of Japan, published by Maruzen Co., Ltd.). More specifically, they can be measured by a method described in Reference Example 3-1.
Herein, measurement of pKas of amino acid side chains was carried out according to the following procedure.
Sirius T3 (Sirius Analytical Instruments Ltd., Forest Row, East Sussex, RH18 5DW, UK)
0.15 M KCl was added to about 1 mg of a test substance as a powder or in about 100 μL of a 10 mM DMSO solution. When the test substance was a basic compound, 0.5 M HCl was added until pH 2 and the test substance was then titrated to pH 12 with 0.5 M KOH.
When the test substance was an acidic compound, 0.5 M KOH was added until pH 12 and the test substance was then titrated to pH 2 with 0.5 M HCl.
Titration operations were automatically performed by T3 manufactured by Sirius, and pKas were determined from the resulting titration curves using Sirius T3 Refinement software.
pKas were similarly determined using imipramine HCl, propranolol HCl, and warfarin as reference compounds, and were confirmed to be within the test results obtained in Sirius. pKas of amino acid side chains were determined by synthesizing a sequence in which the amino acid to be evaluated is introduced into the second residue (the position X in the following table) of a peptide composed of three residues as shown below.

Caco-2 [2] = test: Membrane permeability test of cyclic peptides (Caco-2, modified/improved method of WO 2018/124162)
[3] = as above; details: human, Caco-2, Caco-2 (cm/sec)
in vitro = details: human, Caco-2, Caco-2 (cm/sec)
Caco-2 [4] = tested on: Caco-2
[5] = membrane permeability of cyclic peptides, Caco-2
[6] = amino acid side chain, Sirius T3 titration

- pKa [1]: 5.7
Structure (SMILES): CN[C@@H](CCc1noc(=O)[nH]1)C(=O)O [MeAbu(5-Oxo-Odz)]

Structure (SMILES): CNC(=O)c1ccc(CC[C@H]2C(=O)N[C@@H]([C@@H](C)O)C(=O)N(C)CC(=O)N(C)[C@@H](CC(C)C)C(=O)N[C@@H](CC(C)C)C(=O)N(C)[C@@H](Cc3ccccc3)C(=O)N(C)[C@@H](CC(C)C)C(=O)N[C@H](C(=O)N3CCCCC3)CC(=O)N[C@H](C(C)C)C(=O)N(C)[C@@H](CC(C)C)C(=O)N[C@@H](C(C)C)C(=O)N2C)cc1OC [AP226] ([dV][NMeL]V[NMeHph(3-OMe-4-CONHMe)]T[Sar][NMeL]L[NMeF][NMeL]D-Piperidide; lactam N-11)
- Caco-2 (Caco-2 [2]; [5]): 1e-06 cm/s
- Papp [3, 5]: 0.57 ×10⁻⁶ cm/s

Structure (SMILES): CCCCN1CC(=O)N(C)[C@@H](CC(C)C)C(=O)N[C@H](C(=O)N2CCCCC2)CC(=O)N(C)[C@@H](CC)C(=O)N[C@@H](CC(C)C)C(=O)N(C)[C@@H](CC(C)C)C(=O)N(C)[C@@H](Cc2ccccc2)C(=O)N[C@@H](COCCN2CCOCC2)C(=O)N(C)[C@@H](CC)C(=O)N(C)[C@@H](CC(C)C)C(=O)N[C@@H]([C@@H](C)O)C1=O [pd482] ([NMeAbu]L[NMeL][NMeF]S(Ethyl(2-morpholino))[NMeAbu][NMeL]T[NBuGly][NMeL]D-Piperidide; lactam N-11)
- Caco-2 (Caco-2 [2]; Papp, membrane permeability, cyclic peptides comprising MeAbu(pip-4-F2), MeAbu(Mor), Ser(Et-2-Mor), MeAbu(pip-3-F2) or Abu(5-Oxo-Odz) (Table 29)): 1.1e-06 cm/s

- basic pKa [1]: 6.7
Structure (SMILES): CN[C@@H](CCN1CCC(F)(F)CC1)C(=O)O [MeAbu(pip-4-F2)]

Structure (SMILES): CC(C)C[C@@H]1NC(=O)[C@H](Cc2ccccc2)N(C)C(=O)[C@@H](C)NC(=O)C[C@@H](C(=O)N2CCCCC2)N(C)C(=O)[C@H](Cc2ccccc2)N(C)C(=O)[C@H](Cc2ccccc2)N(C)C(=O)[C@H](COC(C)(C)C)NC(=O)[C@H](CC(C)C)N(C)C(=O)CN(C)C(=O)[C@H]([C@@H](C)O)NC(=O)[C@H](CC(C)C)N(C)C1=O [pd224] ([dA][NMeF]L[NMeL]T[Sar][NMeL]S(tBu)[NMeF][NMeF][NMeD]-Piperidide; lactam N-11)
- Papp (Caco-2, Caco-2 (cm/sec)): 1 ×10⁻⁶ cm/s

- basic pKa [1]: 7.2
Structure (SMILES): N[C@@H](COCCN1CCOCC1)C(=O)O [Ser(Et-2-Mor)]

- measured pKa [1, 6]: 3.8
Structure (SMILES): CS(=O)(=O)NC(=O)CC[C@H](N)C(=O)O [Gln(Ms)]

Structure (SMILES): CC[C@H](C)[C@@H]1NC(=O)[C@H](CC(C)C)N(C)C(=O)CN(C)C(=O)[C@H]([C@@H](C)O)NC(=O)[C@H](Cc2ccccc2)N(C)C(=O)[C@H](CC(C)C)NC(=O)[C@H](Cc2ccccc2)N(C)C(=O)[C@@H](CC(C)C)NC(=O)C[C@@H](C(=O)N2CCCCC2)NC(=O)[C@H](CC(C)C)N(C)C(=O)[C@H](Cc2ccccc2)N(C)C1=O [pd225] ([dL][NMeF]L[NMeF]T[Sar][NMeL]I[NMeF][NMeL]D-Piperidide; lactam N-11)
- Papp (Caco-2, Caco-2 (cm/sec)): 1 ×10⁻⁶ cm/s

- measured basic pKa [1, 6]: 9.1
Structure (SMILES): CN(C)CCOC[C@H](N)C(=O)O [Ser(Et-2-NMe2)]

Structure (SMILES): CC(C)C[C@@H]1NC(=O)[C@H](C)N(C)C(=O)C[C@@H](C(=O)N2CCCCC2)NC(=O)[C@H](CC(C)C)N(C)C(=O)CN(C)C(=O)[C@H]([C@@H](C)O)NC(=O)[C@H](C)N(C)C(=O)[C@H](Cc2ccccc2)N(C)C(=O)[C@H](COCc2ccccc2)NC(=O)[C@H](Cc2ccccc2)N(C)C(=O)[C@H](CC(C)C)N(C)C1=O [pd179] ([NMeA]L[NMeL][NMeF]S(Bn)[NMeF][NMeA]T[Sar][NMeL]D-Piperidide; lactam N-11)
- Caco-2 (Caco-2 [2]; Table 36, Papp, sequences having Papp ≥ 1.0 × 10^−6 at ARC = 3): 2e-06 cm/s
- Papp ([3]; Table 35, Papp, sequences having Papp ≥ 1.0 × 10^−6 at ARC = 3): 2 ×10⁻⁶ cm/s

- basic pKa [1]: 6.8
Structure (SMILES): CN[C@@H](CCN1CCOCC1)C(=O)O [MeAbu(Mor)]

Structure (SMILES): CC(C)C[C@@H]1NC(=O)CN(C)C(=O)[C@H](Cc2ccccc2)N(C)C(=O)[C@@H](C)NC(=O)C[C@@H](C(=O)N2CCCCC2)NC(=O)[C@H](Cc2ccccc2)N(C)C(=O)[C@H](Cc2ccccc2)N(C)C(=O)[C@H](COC(C)(C)C)NC(=O)[C@H](CC(C)C)N(C)C(=O)[C@H](Cc2ccccc2)NC(=O)[C@H]([C@@H](C)O)NC1=O [pd248] ([dA][NMeF][Sar]LTF[NMeL]S(tBu)[NMeF][NMeF]D-Piperidide; lactam N-11)
- Papp (Caco-2, Caco-2 (cm/sec) Papp): 0.014 ×10⁻⁶ cm/s

Structure (SMILES): CC(C)C[C@@H]1NC(=O)[C@H](Cc2ccccc2)N(C)C(=O)[C@@H](C(C)C)NC(=O)C[C@@H](C(=O)N2CCCCC2)NC(=O)[C@H](C(C)C)N(C)C(=O)[C@H](Cc2ccccc2)N(C)C(=O)[C@H](COC(C)(C)C)NC(=O)[C@H](CCN2CCCC(F)(F)C2)N(C)C(=O)CN(C)C(=O)[C@H]([C@@H](C)O)NC(=O)[C@H](CC(C)C)N(C)C1=O [pd387] ([dV][NMeF]L[NMeL]T[Sar][NMeAbu(3,3-F2-piperidino)]S(tBu)[NMeF][NMeV]D-Piperidide; lactam N-11)
- Papp (Caco-2, Caco-2): 3.5 ×10⁻⁶ cm/s

Structure (SMILES): CC(C)(CO)COC[C@H](N)C(=O)O [Ser(2-Me2-PrOH), O-(3-hydroxy-2,2-dimethylpropyl)-L-serine]
- membrane permeability compared with counterpart peptides (Caco-2 [2]; pairwise comparison of matched cyclic peptides, result in words): tended to have better membrane permeability than Ser(nPrOH)

Structure (SMILES): CCCN1CC(=O)N(C)[C@@H](CC(C)C)C(=O)N[C@@H](CC(C)C)C(=O)N(C)[C@@H](Cc2ccccc2)C(=O)N(C)[C@@H](C)C(=O)N[C@H](C(=O)N2CCCCC2)CC(=O)N[C@H](CC(C)C)C(=O)N(C)[C@@H](Cc2ccccc2)C(=O)N[C@@H](COCC(=O)NC(C)(C)C)C(=O)N(C)[C@@H](CC(C)C)C(=O)N[C@@H]([C@@H](C)O)C1=O [AP11] ([dL][NMeF]S(CH2CONHtBu)[NMeL]T[NPrGly][NMeL]L[NMeF][NMeA]D-Piperidide; lactam N-11)
- Caco-2 (Caco-2 [2]; [5]): 1.1e-06 cm/s

- pKa [1]: 5.7
Structure (SMILES): CN[C@@H](CCN1CCCC(F)(F)C1)C(=O)O [MeAbu(pip-3-F2)]

Structure (SMILES): CC(C)C[C@H]1C(=O)N[C@@H]([C@@H](C)O)C(=O)N(C)CC(=O)N(C)[C@@H](C(C)C)C(=O)N[C@@H](Cc2ccccc2)C(=O)N(C)[C@@H](Cc2cccc(Cl)c2)C(=O)N(C)[C@@H](CC(C)C)C(=O)N(C)[C@H](C(=O)N2CCCCC2)CC(=O)N2CCC[C@@H]2C(=O)N[C@@H](Cc2ccccc2)C(=O)N[C@@H](COC(C)(C)C)C(=O)N1C [pd163] ([dP]FS(tBu)[NMeL]T[Sar][NMeV]F[NMePhe(3-Cl)][NMeL][NMeD]-Piperidide; lactam N-11)
- Papp (in vitro): 1.7 ×10⁻⁶ cm/s
- Caco-2 (Caco-2 [4]): 1.7e-06 cm/s
